Reference: the supplement of paper PMC10307832

Tests used:
Assay in all cases: relative viability (nuclei count vs DMSO), 5 days (fraction); higher = more cells survive
Everolimus + Navitoclax = compound: CO[C@H]1C[C@@H]2CC[C@@H](C)[C@@](O)(O2)C(=O)C(=O)N2CCCC[C@H]2C(=O)O[C@H]([C@H](C)C[C@@H]2CC[C@@H](OCCO)[C@H](OC)C2)CC(=O)[C@H](C)/C=C(\C)[C@@H](O)[C@@H](OC)C(=O)[C@H](C)C[C@H](C)/C=C/C=C/C=C/1C [Everolimus] + CC1(C)CCC(c2ccc(Cl)cc2)=C(CN2CCN(c3ccc(C(=O)NS(=O)(=O)c4ccc(N[C@H](CCN5CCOCC5)CSc5ccccc5)c(S(=O)(=O)C(F)(F)F)c4)cc3)CC2)C1 [Navitoclax] (partner 0.5 µM)
Outline: (§1)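 Nuclei were stained with Hoechst during a one-step fixation (final 0.05% Triton X-100, 1% formaldehyde, 1 ug/ml Hoechst) carried out 5 days after dosing, then counted on 4× images. The cells, lung cancer lines in 1536-well plates, had been dosed by pin tool the day after seeding with one drug alone or a fixed anchor-drug dose plus five library-drug doses (not always all listed) in √10 steps. Relative viability is the nuclei count in treated wells divided by that in vehicle wells, and each value is the median of duplicate plates.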

Everolimus + Luminespib = compound: CO[C@H]1C[C@@H]2CC[C@@H](C)[C@@](O)(O2)C(=O)C(=O)N2CCCC[C@H]2C(=O)O[C@H]([C@H](C)C[C@@H]2CC[C@@H](OCCO)[C@H](OC)C2)CC(=O)[C@H](C)/C=C(\C)[C@@H](O)[C@@H](OC)C(=O)[C@H](C)C[C@H](C)/C=C/C=C/C=C/1C [Everolimus] + CCNC(=O)c1noc(-c2cc(C(C)C)c(O)cc2O)c1-c1ccc(CN2CCOCC2)cc1 [Luminespib] (partner 0.01 µM)
Outline: as §1

Everolimus + Foretinib = compound: CO[C@H]1C[C@@H]2CC[C@@H](C)[C@@](O)(O2)C(=O)C(=O)N2CCCC[C@H]2C(=O)O[C@H]([C@H](C)C[C@@H]2CC[C@@H](OCCO)[C@H](OC)C2)CC(=O)[C@H](C)/C=C(\C)[C@@H](O)[C@@H](OC)C(=O)[C@H](C)C[C@H](C)/C=C/C=C/C=C/1C [Everolimus] + COc1cc2c(Oc3ccc(NC(=O)C4(C(=O)Nc5ccc(F)cc5)CC4)cc3F)ccnc2cc1OCCCN1CCOCC1 [Foretinib] (partner 0.25 µM)
Outline: as §1

Everolimus + Linsitinib = compound: CO[C@H]1C[C@@H]2CC[C@@H](C)[C@@](O)(O2)C(=O)C(=O)N2CCCC[C@H]2C(=O)O[C@H]([C@H](C)C[C@@H]2CC[C@@H](OCCO)[C@H](OC)C2)CC(=O)[C@H](C)/C=C(\C)[C@@H](O)[C@@H](OC)C(=O)[C@H](C)C[C@H](C)/C=C/C=C/C=C/1C [Everolimus] + C[C@]1(O)C[C@@H](c2nc(-c3ccc4ccc(-c5ccccc5)nc4c3)c3c(N)nccn32)C1 [Linsitinib] (partner 1 µM)
Outline: as §1

Cell Line	relative viability (Everolimus + Navitoclax; first compound 0.01 µM)	relative viability (Everolimus + Navitoclax; first compound 0.03162 µM)	relative viability (Everolimus + Navitoclax; first compound 0.1 µM)	relative viability (Everolimus + Navitoclax; first compound 0.3162 µM)	relative viability (Everolimus + Navitoclax; first compound 1 µM)	relative viability (Everolimus + Luminespib; first compound 0.01 µM)	relative viability (Everolimus + Luminespib; first compound 0.03162 µM)	relative viability (Everolimus + Luminespib; first compound 0.1 µM)	relative viability (Everolimus + Luminespib; first compound 0.3162 µM)	relative viability (Everolimus + Luminespib; first compound 1 µM)	relative viability (Everolimus + Foretinib; first compound 0.01 µM)	relative viability (Everolimus + Foretinib; first compound 0.03162 µM)	relative viability (Everolimus + Foretinib; first compound 0.1 µM)	relative viability (Everolimus + Foretinib; first compound 0.3162 µM)	relative viability (Everolimus + Foretinib; first compound 1 µM)	relative viability (Everolimus + Linsitinib; first compound 0.01 µM)	relative viability (Everolimus + Linsitinib; first compound 0.03162 µM)	relative viability (Everolimus + Linsitinib; first compound 0.1 µM)	relative viability (Everolimus + Linsitinib; first compound 0.3162 µM)	relative viability (Everolimus + Linsitinib; first compound 1 µM)
H3255	0.252	0.23	0.188	0.167	0.148	0.594	0.584	0.479	0.504	0.498	0.572	0.621	0.458	0.294	0.565	0.804	0.695	0.559	0.602	0.504
HARA	1.14	1.2	1.12	1.11	0.898	0.748	0.768	–	0.407	0.203	0.754	0.847	–	0.793	0.845	0.839	0.8	0.646	0.674	0.713
HCC-44	0.941	0.88	0.819	0.904	0.903	1.02	0.851	1.05	0.938	1.56	–	–	–	–	–	0.467	0.545	0.313	0.349	0.411
HCC-78	0.853	0.421	0.424	0.589	0.455	–	–	–	–	–	0.496	0.477	0.447	0.51	0.391	0.482	0.319	0.272	0.28	0.293
HCC-366	0.859	0.823	0.871	0.91	0.511	–	–	–	–	–	0.794	0.888	0.873	0.866	0.869	0.338	0.372	0.274	0.291	0.343
IA-LM	0.314	0.317	0.395	0.389	0.302	–	–	–	–	–	0.927	0.547	0.476	0.595	0.42	0.296	0.306	0.243	0.267	0.282
LCLC-103H	–	–	–	–	–	0.839	0.819	0.689	0.741	0.733	0.597	0.572	0.522	0.545	0.574	1.04	0.905	0.864	0.831	0.747
NCI-H358	–	–	–	–	–	0.325	0.237	0.196	0.214	0.206	0.432	0.45	0.496	0.388	0.432	0.421	0.533	0.544	0.388	0.347
NCI-H522	–	–	–	–	–	0.841	0.631	0.767	0.738	0.811	–	–	–	–	–	–	–	–	–	–
NCI-H650	–	–	–	–	–	0.858	–	0.511	0.609	0.345	1.01	–	0.842	0.816	0.649	0.53	–	0.506	0.512	0.557
NCI-H661	–	–	–	–	–	0.821	0.767	0.659	0.688	0.534	0.876	0.702	0.738	0.73	0.664	0.473	0.575	0.361	0.319	0.306
NCI-H1299	1.03	1.03	1.04	1.08	1.07	–	–	–	–	–	1.06	1.21	0.634	1.07	1.05	0.855	1	0.544	0.848	0.819
NCI-H1563	–	–	–	–	–	0.54	0.479	0.548	0.501	0.496	0.721	0.768	0.685	0.712	0.562	0.993	0.757	0.766	0.683	0.734
NCI-H1650	1.2	0.824	1.06	1.2	0.876	0.167	0.207	0.184	0.208	0.19	0.827	0.928	0.973	0.966	1.01	–	–	–	–	–
NCI-H1703	0.443	0.453	0.553	0.457	0.671	–	–	–	–	–	0.347	0.406	0.361	0.338	0.328	0.293	0.281	0.447	0.488	0.463
NCI-H1792	0.316	0.251	0.29	0.244	0.362	0.295	0.24	0.21	0.229	0.217	–	–	–	–	–	0.449	0.38	0.202	0.148	0.159
NCI-H2170	0.235	0.22	0.202	0.184	0.236	0.291	0.175	0.229	0.316	0.198	0.635	0.641	0.654	0.587	0.614	–	–	–	–	–
NCI-H2342	–	–	–	–	–	0.668	0.496	0.426	0.46	0.553	0.924	0.654	0.551	0.618	0.681	–	–	–	–	–
SW 900	–	–	–	–	–	0.173	0.174	0.165	0.154	0.169	0.685	0.477	0.748	0.525	0.508	–	–	–	–	–
